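Method: 48-hour compound exposure of cells in 96-well plates, five concentrations, linear interpolation of endpoints. GI50 is the concentration that inhibits growth by half.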 Active and inactive are the calls of the source. Rule as the data show it: active = GI50 up to about 1.1 µM and inactive = higher.
What was measured:
Test in all cases: inhibition of tumour cell growth, NCI panel, 48 h
[1] = test system: SF-295
[2] = test system: SK-OV-3
[3] = test system: UACC-257
[4] = test system: SNB-19
[5] = test system: EKVX
[6] = test system: LOX IMVI
[7] = test system: SK-MEL-5
[8] = test system: SF-268
[9] = test system: RXF 393
[10] = test system: HOP-92
[11] = test system: OVCAR-8
[12] = test system: NCI-H23
[13] = test system: NCI-H226
[14] = test system: IGROV-1
[15] = test system: M14
[16] = test system: TK-10
[17] = test system: HCC 2998
[18] = test system: SK-MEL-28
[19] = test system: SNB-75

Measured: GI50

COC(=O)[C@@H]1C[C@H]([Se]c2ccccc2)CN1C(=O)OCc1ccccc1
inactive: [1] 35.3 µM | [2] > 100 µM | [3] 31.4 µM | [4] 62.7 µM | [5] 39.2 µM | [6] 12.6 µM | [7] 16.9 µM | [8] 47.5 µM | [9] 20.2 µM | [10] 33.7 µM | [11] 45.3 µM | [12] 20.4 µM | [13] 32.7 µM | [14] 50.6 µM | [15] 29.8 µM | [16] 53.5 µM | [17] 87.9 µM | [18] 24 µM | [19] 63.4 µM

Cn1c2cc(Cl)ccc2c2ccc3c(c21)C(=O)C=CC3=O
inactive: [1] > 100 µM | [2] > 100 µM | [3] 26.4 µM | [4] > 100 µM | [5] > 71.4 µM | [6] 42.5 µM | [7] 39.8 µM | [8] 38.6 µM | [9] 21.1 µM | [10] 19 µM | [11] 28.3 µM | [12] 20 µM | [13] > 100 µM | [14] 28.4 µM | [15] 23.7 µM | [16] 26.9 µM | [17] > 100 µM | [18] 25.3 µM | [19] > 71 µM

O=C1/C(=C/c2ccccc2)CCC/C1=C\c1ccc(O)c(CN2CCCCC2)c1
inactive: [1] 5.35 µM | [2] 9.1 µM | [3] 5.53 µM | [4] 9.35 µM | [5] 6.75 µM | [6] 1.99 µM | [7] 2.92 µM | [8] 5.07 µM | [9] 13.8 µM | [10] 4.55 µM | [11] 3.78 µM | [12] 3.96 µM | [13] 6.41 µM | [14] 3.72 µM | [15] 3.26 µM | [16] 15.2 µM | [17] 2.39 µM | [18] 6.92 µM | [19] 6.37 µM

CN(C)CCCCN1c2ccccc2Sc2cc(N=[N+]=[N-])ccc21
inactive: [1] 1.96 µM | [2] 2.2 µM | [3] 1.83 µM | [4] 5.75 µM | [5] 4.15 µM | [6] 1.56 µM | [7] 1.73 µM | [8] 2.38 µM | [9] 3.3 µM | [10] 2.74 µM | [11] 1.69 µM | [12] 9.66 µM | [13] 3.28 µM | [14] 1.73 µM | [15] 1.69 µM | [16] 2.02 µM | [17] 1.89 µM | [18] 1.82 µM | [19] 1.8 µM

CCOC(=O)C1=CC(C)(C(=O)OCC)Nc2c(nc(N)[nH]c2=O)N1 (stereo not given)
inactive: [1] > 10 µM | [2] > 10 µM | [3] > 10 µM | [4] > 10 µM | [5] > 10 µM | [6] > 10 µM | [7] > 10 µM | [8] > 10 µM | [9] > 10 µM | [10] > 10 µM | [11] > 10 µM | [12] > 10 µM | [13] > 10 µM | [14] > 10 µM | [15] > 10 µM | [16] > 10 µM | [17] > 10 µM | [18] > 10 µM | [19] > 10 µM

Source: ChEMBL document CHEMBL1201862, “PubChem BioAssay data set” (2004)
